Measurements from US20060024691A1, “Novel pathways in the etiology of cancer” (Buck Institute for Age Research, priority 2004, published 2006).
“Also recorded” adds a separate entry of the source.

How the values were obtained:
Type in all cases: cell-based, human
IκBα = experiment: Immunoblot of cytoplasmic IκBα in MCF-7 cells; conditions: MCF-7, menadione 100 μM × 30 min
Description: (§1) PS-341 was kindly provided by Millennium Pharmaceuticals Inc. (Cambridge, Mass.). […] For assessment of combined treatment effects on cell viability, 2×10^4 cells (MCF-7, MCF-7/HER2, BT474) grown in 24-well plates were first treated with tamoxifen (dissolved in ethanol) and/or parthenolide (dissolved in DMSO); for the combination treatment pathenolide was added 4 h before addition of tamoxifen. Cell viability was measured 18 h after tamoxifen treatment using the sulforhodamine B (SRB) assay (Skehan, et al. 1990). Briefly, cells fixed with trichloroacetic acid were stained for 30 min with 0.4% SRB dissolved in 1% acetic acid. Unbound dye was removed by four washes with 1% acetic acid, and protein-bound dye was extracted with 10 mM unbuffered Tris base [tris(hydroxymethyl)aminomethane] for determination of optical density at 564 nm.
Fractionation of control and treated cells into cytoplasmic and nuclear extracts was performed as previously described (Dignam et al., 1983), with minor modification. Cells harvested on ice were washed twice with cold PBS, scraped and resuspended in 1.0 ml hypotonic buffer (20 mM HEPES, pH 7.0; 10 mM KCl; 1 mM MgCl2; 0.1% Triton X-100; 20% glycerol; 0.5 mM DTT) containing a cocktail of protease inhibitors (Mini CompleteTM protease inhibitors, Roche Diagnostics, Mannheim, Germany). […]

NF-κB p65 = experiment: Nuclear translocation of NF-κB p65 in MCF-7 cultures; conditions: 10 μM, 30 min
NF-κB p50 = experiment: Nuclear translocation of NF-κB p50 in MCF-7 cultures; conditions: 10 μM, 30 min
NFκB = NFκB DNA-binding by EMSA, nuclear extracts of menadione treated MCF-7 cells; conditions: MCF-7, menadione 100 μM × 30 min
Description: as §1
Fractionation of control and treated cells into cytoplasmic and nuclear extracts was performed as previously described (Dignam et al., 1983), with minor modification. Cells harvested on ice were washed twice with cold PBS, scraped and resuspended in 1.0 ml hypotonic buffer (20 mM HEPES, pH 7.0; 10 mM KCl; 1 mM MgCl2; 0.1% Triton X-100; 20% glycerol; 0.5 mM DTT) containing a cocktail of protease inhibitors (Mini CompleteTM protease inhibitors, Roche Diagnostics, Mannheim, Germany). The harvested cells were Dounce homogenized on ice, the mixture centrifuged at 3,000 rpm at 4° C. (5 min), and the cytoplasmic fraction separated from the nuclear pellet which was resuspended in elution buffer (20 mM HEPES, pH 7.0; 10 mM KCl; 1 mM MgCl2; 0.42 M NaCl; 0.1% Triton X-100; 20% glycerol; 0.5 mM DTT), supplemented with protease inhibitors. After 20 min at 4° C. the buffered mixture was centrifuged at 14,000 rpm at 4° C. (10 min) to obtain solubilized nuclear extracts which were then stored in aliquots at −80° C. after protein determination (Bradford; BioRad, Hercules, Calif.) and for subsequent NFkB DNA-binding assays.
NFκB DNA-binding activity was measured by two different techniques. Analogous to previous tumor extract scoring of Sp1 DNA-binding protein (Quong et al., 2002), total specific NFκB DNA-binding protein was determined by electrophoretic morbility shift assay (EMSA) as follows. A duplexed oligonucleotide probe (Promega, Madison, Wis.) with sense strand containing the decameric κB consensus binding sequence (underlined) 5′-[…]-3′(SEQ ID NO:4) was end-labeled with [γ-P32]ATP (PerkinElmer, Boston, Mass.) using T4 polynucleotide kinase (Promega, Madison, Wis.) and purified with G-50 Sephadex Bio-Spin columns (BioRad, Hercules, Calif.). […]

Compound: CC1=CC(=O)c2ccccc2C1=O [menadione, 2-methyl-1,4-naphthoquinone]
- cytoplasmic levels of IκBα after menadione treatment (IκBα): reduced
- increase in nuclear translocation of NF-κB p65 vs control treated cells (NF-κB p65): > 3 fold
- increase in nuclear translocation of NF-κB p50 vs control treated cells (NF-κB p50): > 3 fold
- NFκB activation after menadione treatment (EMSA) (NFκB): increase in MCF-7 NFκB activation; also recorded: significantly increase MCF-7 NFκB activity
